Measured values: article PMC10451032 (ACS Central Science, 2023)

Assays:
[1] = system: rNsp5^WT recombinant SARS-CoV-2; assay: microbe, parasite or virus in culture; type: cell-based; details: Severe acute respiratory syndrome coronavirus 2
[2] = system: triple mutant L50F/E166A/L167F; details: cited from earlier work
[3] = system: triple mutant L50F/E166A/L167F; details: cited from earlier work; remark: listed apart in the source

## CC(C)(C)[C@H](NC(=O)C(F)(F)F)C(=O)N1C[C@H]2[C@@H]([C@H]1C(=O)N[C@H](C#N)C[C@@H]1CCNC1=O)C2(C)C [nirmatrelvir]
[1]
  EC50: 25.5 nM
[2]
  EC50 increase in the antiviral assay: 51 fold
[3]
  IC50 increase in the enzymatic assay: 72 fold
